# Assay results as given in US9095537B2, “Therapy of cancer based on targeting adaptive, innate and/or regulatory component of the immune response” (priority 2006, dated 2015).
# Read-outs that look alike come from different tables or passages of the source.
# Legend:
# [1] = test system: TC-1 cells; format: in vivo, C57BL/6 mice; conditions: for survival percentage: TLR ligand given i.v. with 50 ug CyaA-E7 on day 25, pU and CpGs complexed with DOTAP, survival on day 100; for effect on tumor growth of TLR ligand alone: TLR ligand alone without CyaA-E7, day 25; for tumor growth after CTX alone: CTX 2.5 mg i.p. alone, day 24; for mice that totally eradicated their tumors: low dose CTX (2.5 mg i.p.) day 24, 24 h before 50 ug CyaA-E7; for enhancement of the effect of CyaA-E7 by DOX: DOX day 24, intra-tumorally or intravenously, CyaA-E7 day 25; for increase in tumor regression: TLR ligand given with CyaA-E7 on day 25, versus CyaA-E7 alone
# Method: (§1) Specific pathogen-free 5-week-old female C57BL/6 mice were purchased from Charles River (L'Arbresle, France) and were kept in the Pasteur Institute animal facilities under pathogen-free conditions with water and food ad libitum. C57BL/6-RAG1^−/− mice were obtained from the Jackson Laboratory, USA. Experiments involving animals were conducted according to the institutional guidelines for animal care.
# TC-1 cells expressing HPV16-E6 and HPV16-E7 proteins derived from primary mouse lung epithelial cells were obtained from the American Type Culture Collection (LGC Promochem, Molsheim, France) (14). EL4-E7 cells, a mouse lymphoma expressing HPV16-E7 (15). Cells were maintained in RPMI 1640 with GlutaMAX supplemented with 10% heat-inactivated fetal calf serum, 100 units/ml penicillin, 100 μg/ml streptomycin, 0.4 mg/ml geneticin and 5×10^−5 mol/12-mercaptoethanol (Life Technologies, Cergy-Pontoise, France).
# (§2) Tumor cells lines (5×10^5 TC-1 cells or 4×10^6 EL4-E7 cells) were inoculated into the shaved left back of C57BL/6 mice in 200 μl volume of PBS. Tumor size, presented as the average of two perpendicular diameters (millimeters), was measured at regular intervals.
# CpG ODNs (Type A, CpG 2216: 5′-[…]-3′ (SEQ ID NO: 6); Type B, CpG 1826: 5′-[…]-3′ (SEQ ID NO: 7)) were synthesized by Proligo (Paris, France). Boldface nucleotides correspond to phosphorothioate backbone. Polyuridine (pU) was purchased from Sigma (Steinheim, Germany), R848 from PharmaTech (Shanghai, China) and polyinosinic-polycytidylic acid (PIC) from Invivogen (San Diego, Calif., USA). Thirty μg of CpG ODNs or pU were diluted in 50 μl of Optimen medium (Gibco, Grand Island, N.Y., USA) and mixed with 60 μg of DOTAP (Roche, Mannheim, Germany) diluted in 100 μl of Optimen. The rest of the reagents were diluted in PBS before injection. Cyclophosphamide (CTX) (Sigma, Steinheim, Germany) and doxorubicin (DOX) (Calbiochem, La Jolla, Calif., USA) were diluted respectively in PBS and in sterile water before injection. The different antigenic formulations and adjuvants were injected simultaneously except chemotherapeutic agents that were given 24 h before vaccine. Intravenous administrations were performed by retroorbital injection in a volume of 200 μl, intratumoral administrations were done by injection in a volume of 50 μl and subcutaneous administration were performed in 200 μl.
# Tumor growth data were analyzed by non-linear mixed effect models using Monolix software (http://www.math.u-psud.fr/˜lavielle/monolix/). Mean diameters of tumors over time were fitted using the model described in (17) and treatments were compared using the Likelihood Ratio test. Kaplan-Meier plots were used to analyzed survival, and a log rank test was used to examine statistical significance of differences in the survival curves using Prism software (GraphPad Software, Inc. San Diego, USA). Data from in vivo CTL and tetramer staining were compared by ANOVA followed by Dunnett posttest. p values less than 0.05 were considered to be statistically significant.
# [2] = test system: TC-1 cells; conditions: CTX 2.5 mg i.p. day 24; log-rank p=0.22 vs PBS
# Method: as §1, §2
# [3] = test system: E749-57 peptide-pulsed splenocytes; assay: In vivo killing assay (in vivo CTL); set-up: species or system C57BL/6 mice; conditions: CTX 24 h before CyaA-E7, tumor-bearing mice day 25
# Method: FIG. 8. Analysis of tumor specific immune response in control and tumor-bearing mice after different treatments. […] Twenty-five days later, control and tumor-bearing mice were injected with either 50 μg of control CyaA or of CyaA-E7, with PBS or with 30 μg of CpG-B or pU/DOTAP, 25 μg of PIC, 50 μg of R848, 2.5 mg of CTX (24 h before) or with CTX and CpG-B/DOTAP. Percentage of CD8^+ tetramer^+ cells in control (A) and in tumor-bearing mice (B). At day 7 after treatment, mice were sacrificed and the percentage of tetramer positive cells was analyzed by flow cytometry. In vivo CTL in control (C) and in tumor-bearing mice (D). […] Twenty-four hours later, spleens were removed and single-cell suspensions were analyzed by flow cytometry to determine the ratio of CFSE^high to CFSE^low cells. […] In vivo cytolytic activity was low but detected (E and F).
# Naïve spleen cells were pulsed for 30 min with 9 μM E749-57 peptide at 37° C. […] Twenty-four hours later, spleens were removed and single-cells suspensions were analyzed by flow cytometry to determine the ratio of CFSE^high to CFSE^low cells. The percentage of specific lysis was calculated as follow: percent-specific lysis=100−(100×(% CFSE^highimmunized/% CFSE^low immunized)/(% CFSE^high control/% CFSE^low control)).
# [4] = test system: T regulatory cells, myeloid suppressor cells, tumor-specific CD8+ T cells and NK cells; assay: Flow cytometric analysis of immune cells in spleen, draining lymph nodes and tumor after tritherapy; format: in vivo, C57BL/6 mice
# Method: FIG. 9. Changes in immune cells after tritherapy on day 25. […] Groups of mice were sacrificed before treatment (day 0), 24 hour after CTX alone (day 1) or on days 4, 7 or 11 after tritherapy administration. Spleen, tumor draining lymph nodes and tumor were excised, ground to prepare the cell suspensions, stained and analyzed by flow cytometry. Pooled data of two experiments are shown (n=4-6 mice). Bars represent mean values and the error bars correspond to standard error of the mean. *<0.05**<0.01. A) Percentage of CD4^+ cells that express CD25 and FoxP3. B) Percentage of CD4^+ cells that are CD25^− and FoxP3^+. C) Percentage of CD4^+ cells that express FoxP3. D) Percentage of CD8^+ cells that are tetramer^+ and CD44^+. E) Percentage of CD11c^+ cells. F) Percentage of CD11b^+ cells. G) Percentage of GR1^+ cells. H) Percentage of CD11b^+GR1^+ positive cells.
# FIG. 11. Phenotype of myeloid cells induced by tritherapy and by tumor growth. […] Tritherapy treated mice received on day 24, 2.5 mg CTX i.p and 24 h later, 50 μg CyaA-E7 and 30 μg CpG-B/DOTAP. PBS treated mice received 200 μl of PBS on day 25. […] Spleens were excised, ground to prepare the cell suspensions, stained and analyzed by flow cytometry. […]
# FACScalibur (Becton Dickinson, Franklin Lakes, N.J., USA) was used for flow cytometry and events were analyzed with CELLQuest software (Becton Dickinson, Franklin Lakes, N.J., USA).
molecule,measurement,setting,value
5′-GGGGGACGATCGTCGGGGGG-3′ [CpG-A],survival percentage,[1],58%
5′-TCCATGACGTTCCTGACGTT-3′ [CpG-B],effect on tumor growth of TLR ligand alone,[1],none of these TLR ligands administered alone had any effect on the tumor growth
same,survival percentage,[1],50%
"O=P1(N(CCCl)CCCl)NCCCO1 (centres unmarked) [CTX, Cyclophosphamide]",antitumor efficacy of combined CTX and CyaA-E7 at higher CTX dose,"[1]; 300 mg/kg versus 100 mg/kg CTX i.p. day 24, CyaA-E7 day 25, log-rank p=0.95",not improved
same,tumor growth after CTX alone,[1],significantly delayed tumor growth but this effect was transient and was followed by tumor relapse
same,tumor growth after CTX alone,[1]; listed as cyclophosphamide,could transiently control tumor growth but was not able to induce the complete eradication
same,tumor growth after CTX plus CyaA-E7,"[1]; low dose CTX 24 h before CyaA-E7, day 24/25",delayed growth of all tumors
same,mice that totally eradicated their tumors,[1],58%
same,mice that totally eradicated their tumors,[1]; listed as cyclophosphamide,around 60%
same,tumor growth delay by CTX alone in RAG1-/- mice,[2],not observed
same,immune response induced by CyaA-E7,[3],did not enhance the immune response induced by CyaA-E7
same,percentage of CD25+FoxP3+/CD4+ in tumor-infiltrated lymphocytes,"[4]; four days after administration of cyclophosphamide, from around 50%",below 30%
same,lymphodepletion,"[4]; spleen and lymph node, tumor-bearing mice, CTX 2.5 mg i.p. day 24",transient lymphodepletion in spleen and lymph node that reverted by day 7
"COc1cccc2c1C(=O)c1c(O)c3c(c(O)c1C2=O)C[C@@](O)(C(=O)CO)C[C@@H]3O[C@H]1C[C@H](N)[C@H](O)[C@H](C)O1 [DOX, Doxorubicin]",enhancement of the effect of CyaA-E7 by DOX,[1],did not enhance the effect of CyaA-E7
same,enhancement of the effect of CyaA-E7 by DOX,[1]; listed as doxorubicin,had no effect
polyinosinic-polycytidylic acid [PIC],effect on tumor growth of TLR ligand alone,[1],none of these TLR ligands administered alone had any effect on the tumor growth
same,survival percentage,[1],41%
same,increase in tumor regression,[1],significant increase in tumor regression
polyuridine [pU],survival percentage,[1],41%
same,increase in tumor regression,[1],significant increase in tumor regression
